Data set [1] relates to cloned mammalian (mSlo or hSlo) BK. The data set can be described thus: Two-electrode voltage clamp of cloned BK-mediated outward current expressed in Xenopus oocytes. It counts as cell-based. Particulars: 1 μM; at least 5 oocytes; IBTX 50 nM used to isolate BK current. The procedure: (§1) The ability of the compound of Example 1 to open BK channels and increase whole-cell outward (K^+) BK-mediated currents was assessed under voltage-clamp conditions by determining their ability to increase cloned mammalian (mSlo or hSlo) BK-mediated outward current heterologously expressed in Xenopus oocytes [Butler, A., et al., Science, 261, pp. 221-224 (1993); and Dworetzky, S. I., et al., Mol. Brain Res., 27, pp.189-193 (1994)]. The two BK constructs employed represent nearly structurally identical homologous proteins, and have proven to be pharmacologically identical in our tests. To isolate BK current from native (background, non-BK) current, the specific and potent BK channel-blocking toxin iberiotoxin (IBTX) [Galvez, A., et al., J. Biol. Chem, 265, pp. 11083-11090 (1990)] was employed at a supramaximal concentration (50 nM). The relative contribution of BK channels current to total outward current was determined by subtraction of the current remaining in the presence of IBTX (non-BK current) from the current profiles obtained in all other experimental conditions (control, drug, and wash). […]
For orientation: Two-electrode voltage clamp holds a large cell at a set potential and records current.

Data set [2] concerns non-BK native currents in the oocytes. The data set can be described thus: Effect on non-BK (IBTX-insensitive) native currents in Xenopus oocytes under voltage clamp. It counts as cell-based. As to conditions: at the tested concentration (1 μM). As for the experimental part: as §1
The subject of a further data set is cortical infarct volume. In words: Focal stroke model: permanent MCA and CCA occlusion with temporary right CCA occlusion. It counts as in vivo. Particulars: 10 μg/kg i.v. single bolus two hours after MCA occlusion; infarct measured 24 hours after MCAO; Wistar rat. As for the experimental part:
To determine the ability of the compounds of the present invention to reduce cell loss resulting from neuronal ischemia, a standard focal cerebral ischemia is induced by permanent occlusion of the left middle cerebral artery (MCA) and common carotid artery (CCA) with one hour occlusion of the right CCA in the Wistar rat. The surgeries are performed using the sub-temporal approach of A. Tamura, et al., J. Cereb. Blood Flow Metab., 1, pp. 53-60, (1981) and its modifications [K. Osborne, et al., J. Neurol Neurosurg. Psychiatry, 50, pp. 402-410 (1987) and S. Menzies, et al., Neurosurgery, 31, pp. 100-107, (1992).]
The compound of Example 1 was evaluated in the focal stroke model involving permanent occlusion of the left MCA (MCAO) and CCA (CCAO) and temporary occlusion of the right CCA in the Wistar rat. This procedure results in a reliably large neocortical infarct volume that is measured by means of vital dye exclusion in serial slices through the brain 24 hours after MCAO. In the present test, compounds were administered using an i.v. or i.p. route of administration two hours after occlusion.

Data set [3] in a line: Rapid screen of prodrug hydrolysis and release of the drug in plasma. It counts as in vitro ADME. Particulars: fresh rat plasma, 37° C., 10 μg/mL from a 1 mg/mL PEG-400 stock, analysis 5 minutes after incubation, HPLC. As for the experimental part: A rapid screen to determine the ability of prodrugs to hydrolyze and release the drug (compound of Example 1) is conducted as follows. A 1 mg/mL stock solution of the prodrug is prepared in distilled water or acetonitrile or PEG-400. Plasma from freshly collected rat or human blood is used in this assay. To 1 mL of plasma at 37° C. was added 10 μL of stock solution of prodrug and mixed gently. Immediately after the mixing, 100 μL of plasma was removed and quenched with 300 μL of acetontrile (Zero time sample). Samples were also obtained at 30 minutes and quenched immediately. The quenched samples were centrifuged to obtain a clear supernatant for analysis. The stock solution, T=0 and T=30 samples were analyzed by a HPLC assay that separates the drug from the prodrug. Based on the relative peak areas of prodrug and drug in these samples, different prodrugs are characterized as fast, moderate and slow release agents. For example, in this model, the compound of Example 9 was dissolved in PEG-400 at a concentration of 1 mg/mL and incubated at 10 μg/mL in fresh rat plasma at 37° C.

Molecules are shown by their SMILES.

Take `O=c1oc(-c2ccc(C(F)(F)F)cc2)nn1Cc1cc(Cl)ccc1O` [Example 1, 3-[(5-Chloro-2-hydroxyphenyl)methyl]-5-[4-(trifluoromethyl)phenyl]-1,3,4-oxadiazol-2(3H)-one]: in data set [1], the “BK current, % of control of IBTX-sensitive current” value is given as 126 % of control. Further, the “effect on non-BK native currents in the oocytes” value in data set [2] is listed as “did not effect non-BK native currents”. Also, the “reduction of cortical infarct volume vs vehicle-treated (water) control” value in the data set with cortical infarct volume was “about 18%”.

As to `CN[C@@H](CC(C)C)C(=O)Oc1ccc(Cl)cc1Cn1nc(-c2ccc(C(F)(F)F)cc2)oc1=O` [Example 9, 3-[(5-Chloro-2-hydroxyphenyl)methyl]-5-[4-(trifluoromethyl)phenyl]-1,3,4-oxadiazol-2(3H)-one, N-Methyl (L)-Leucine ester], the “conversion of prodrug to drug (compound of Example 1) in plasma” value in data set [3] is listed as “conversion of the compound of Example 9 to the compound of Example 1”.

The record behind these values is patent US5977150A, “Amino acid derivatives of diaryl 1,3,4-oxadiazolone” (Bristol-Myers Squibb Company, priority 1999, dated 1999).
